Measured values as given in PubChem BioAssay (NCI).
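Values below derive from 48-hour exposures of cells grown in 96-well plates, with endpoints linearly interpolated between the two concentrations bracketing the appropriate inhibition level. TGI denotes the concentration required for complete inhibition of growth.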

Experiments:
Assay in all cases: NCI tumour cell line growth inhibition, 48 h
786-0 renal = system: 786-0 renal
A498 renal = system: A498 renal
A549 NSCLC = system: A549 NSCLC
ACHN renal = system: ACHN renal
BT-549 breast = system: BT-549 breast
CAKI-1 renal = system: CAKI-1 renal
CCRF-CEM leukemia = system: CCRF-CEM leukemia
COLO 205 colon = system: COLO 205 colon
DLD-1 colon = system: DLD-1 colon
DMS 114 small cell lung = system: DMS 114 small cell lung
DMS 273 small cell lung = system: DMS 273 small cell lung
DU-145 prostate = system: DU-145 prostate
EKVX NSCLC = system: EKVX NSCLC
HCC-2998 colon = system: HCC-2998 colon
HCT-116 colon = system: HCT-116 colon
HCT-15 colon = system: HCT-15 colon
HL-60(TB) leukemia = system: HL-60(TB) leukemia
HOP-18 NSCLC = system: HOP-18 NSCLC
HOP-62 NSCLC = system: HOP-62 NSCLC
HOP-92 NSCLC = system: HOP-92 NSCLC
HS 578T breast = system: HS 578T breast
HT29 colon = system: HT29 colon
IGROV1 ovarian = system: IGROV1 ovarian
K-562 leukemia = system: K-562 leukemia
KM12 colon = system: KM12 colon
KM20L2 colon = system: KM20L2 colon
LOX IMVI melanoma = system: LOX IMVI melanoma
LXFL 529 NSCLC = system: LXFL 529 NSCLC
M14 melanoma = system: M14 melanoma
M19-MEL melanoma = system: M19-MEL melanoma
MALME-3M melanoma = system: MALME-3M melanoma
MCF7 breast = system: MCF7 breast
MDA-MB-231 breast = system: MDA-MB-231 breast
MDA-MB-435 = system: MDA-MB-435
MDA-N = system: MDA-N
MOLT-4 leukemia = system: MOLT-4 leukemia
NCI-H226 lung = system: NCI-H226 lung
NCI-H23 lung = system: NCI-H23 lung
NCI-H460 lung = system: NCI-H460 lung
NCI-H522 lung = system: NCI-H522 lung
NCI/ADR-RES ovarian = system: NCI/ADR-RES ovarian
OVCAR-3 ovarian = system: OVCAR-3 ovarian
OVCAR-4 ovarian = system: OVCAR-4 ovarian
OVCAR-5 ovarian = system: OVCAR-5 ovarian
OVCAR-8 ovarian = system: OVCAR-8 ovarian
PC-3 prostate = system: PC-3 prostate
RPMI-8226 leukemia = system: RPMI-8226 leukemia
RXF 393 renal = system: RXF 393 renal
SF-268 CNS = system: SF-268 CNS
SF-295 CNS = system: SF-295 CNS
SF-539 CNS = system: SF-539 CNS
SK-MEL-2 melanoma = system: SK-MEL-2 melanoma
SK-MEL-28 melanoma = system: SK-MEL-28 melanoma
SK-MEL-5 melanoma = system: SK-MEL-5 melanoma
SK-OV-3 ovarian = system: SK-OV-3 ovarian
SN12C renal = system: SN12C renal
SNB-19 CNS = system: SNB-19 CNS
SNB-75 CNS = system: SNB-75 CNS
SNB-78 CNS = system: SNB-78 CNS
SR leukemia = system: SR leukemia
SW-620 colon = system: SW-620 colon
T-47D breast = system: T-47D breast
TK-10 renal = system: TK-10 renal
U251 CNS = system: U251 CNS
UACC-257 melanoma = system: UACC-257 melanoma
UACC-62 melanoma = system: UACC-62 melanoma
UO-31 renal = system: UO-31 renal
XF 498 CNS = system: XF 498 CNS

Compound: S=C(S)N1CCOCC1
- TGI (786-0 renal): > 41.4 µM
- TGI (A498 renal): > 54.4 µM
- TGI (A549 NSCLC): > 100 µM
- TGI (ACHN renal): > 100 µM
- TGI (BT-549 breast): > 100 µM
- TGI (CAKI-1 renal): > 34 µM
- TGI (CCRF-CEM leukemia): 4.42 µM
- TGI (COLO 205 colon): 5.98 µM
- TGI (DLD-1 colon): 5.22 µM
- TGI (DMS 114 small cell lung): 0.904 µM
- TGI (DMS 273 small cell lung): 21.1 µM
- TGI (DU-145 prostate): > 100 µM
- TGI (EKVX NSCLC): > 100 µM
- TGI (HCC-2998 colon): > 31.1 µM
- TGI (HCT-116 colon): 24.9 µM
- TGI (HCT-15 colon): > 60.1 µM
- TGI (HL-60(TB) leukemia): 14.3 µM
- TGI (HOP-18 NSCLC): > 100 µM
- TGI (HOP-62 NSCLC): > 100 µM
- TGI (HOP-92 NSCLC): > 100 µM
- TGI (HS 578T breast): > 100 µM
- TGI (HT29 colon): 17.1 µM
- TGI (IGROV1 ovarian): > 100 µM
- TGI (K-562 leukemia): 24.9 µM
- TGI (KM12 colon): > 100 µM
- TGI (KM20L2 colon): > 53.2 µM
- TGI (LOX IMVI melanoma): > 78.3 µM
- TGI (LXFL 529 NSCLC): > 100 µM
- TGI (M14 melanoma): 98.4 µM
- TGI (M19-MEL melanoma): 12.4 µM
- TGI (MALME-3M melanoma): > 64.2 µM
- TGI (MCF7 breast): > 100 µM
- TGI (MDA-MB-231 breast): > 100 µM
- TGI (MDA-MB-435): > 100 µM
- TGI (MDA-N): > 100 µM
- TGI (MOLT-4 leukemia): 9.89 µM
- TGI (NCI-H226 lung): > 100 µM
- TGI (NCI-H23 lung): > 34 µM
- TGI (NCI-H460 lung): > 29.6 µM
- TGI (NCI-H522 lung): 3.98 µM
- TGI (NCI/ADR-RES ovarian): > 100 µM
- TGI (OVCAR-3 ovarian): 15.8 µM
- TGI (OVCAR-4 ovarian): > 34.5 µM
- TGI (OVCAR-5 ovarian): > 100 µM
- TGI (OVCAR-8 ovarian): > 100 µM
- TGI (PC-3 prostate): > 100 µM
- TGI (RPMI-8226 leukemia): 42.6 µM
- TGI (RXF 393 renal): 12.7 µM
- TGI (SF-268 CNS): > 100 µM
- TGI (SF-295 CNS): > 100 µM
- TGI (SF-539 CNS): > 83.6 µM
- TGI (SK-MEL-2 melanoma): > 100 µM
- TGI (SK-MEL-28 melanoma): 82.2 µM
- TGI (SK-MEL-5 melanoma): > 63.9 µM
- TGI (SK-OV-3 ovarian): > 100 µM
- TGI (SN12C renal): > 100 µM
- TGI (SNB-19 CNS): > 100 µM
- TGI (SNB-75 CNS): > 29.8 µM
- TGI (SNB-78 CNS): > 100 µM
- TGI (SR leukemia): 14.8 µM
- TGI (SW-620 colon): 16.5 µM
- TGI (T-47D breast): > 100 µM
- TGI (TK-10 renal): > 100 µM
- TGI (U251 CNS): 25.8 µM
- TGI (UACC-257 melanoma): > 100 µM
- TGI (UACC-62 melanoma): 15 µM
- TGI (UO-31 renal): > 100 µM
- TGI (XF 498 CNS): 16 µM

Compound: CN[C@H](C)[C@@H](OC)c1ccccc1
- TGI (786-0 renal): > 100 µM
- TGI (A549 NSCLC): > 100 µM
- TGI (ACHN renal): > 100 µM
- TGI (CAKI-1 renal): > 100 µM
- TGI (CCRF-CEM leukemia): > 100 µM
- TGI (COLO 205 colon): > 100 µM
- TGI (DLD-1 colon): > 100 µM
- TGI (DMS 114 small cell lung): > 100 µM
- TGI (DMS 273 small cell lung): > 100 µM
- TGI (EKVX NSCLC): > 100 µM
- TGI (HCC-2998 colon): > 100 µM
- TGI (HCT-116 colon): > 100 µM
- TGI (HCT-15 colon): > 100 µM
- TGI (HL-60(TB) leukemia): > 100 µM
- TGI (HOP-18 NSCLC): > 100 µM
- TGI (HOP-62 NSCLC): > 100 µM
- TGI (HOP-92 NSCLC): > 100 µM
- TGI (HT29 colon): > 100 µM
- TGI (IGROV1 ovarian): > 100 µM
- TGI (K-562 leukemia): > 100 µM
- TGI (KM12 colon): > 100 µM
- TGI (KM20L2 colon): > 100 µM
- TGI (LOX IMVI melanoma): > 100 µM
- TGI (LXFL 529 NSCLC): > 100 µM
- TGI (M14 melanoma): > 100 µM
- TGI (M19-MEL melanoma): > 100 µM
- TGI (MALME-3M melanoma): > 100 µM
- TGI (MOLT-4 leukemia): > 100 µM
- TGI (NCI-H226 lung): > 100 µM
- TGI (NCI-H460 lung): > 100 µM
- TGI (OVCAR-3 ovarian): > 100 µM
- TGI (OVCAR-4 ovarian): > 100 µM
- TGI (OVCAR-5 ovarian): > 100 µM
- TGI (OVCAR-8 ovarian): > 100 µM
- TGI (RPMI-8226 leukemia): > 100 µM
- TGI (RXF 393 renal): > 100 µM
- TGI (SF-295 CNS): > 100 µM
- TGI (SK-MEL-2 melanoma): > 100 µM
- TGI (SK-MEL-28 melanoma): > 100 µM
- TGI (SK-MEL-5 melanoma): > 100 µM
- TGI (SK-OV-3 ovarian): > 100 µM
- TGI (SN12C renal): > 100 µM
- TGI (SNB-19 CNS): > 100 µM
- TGI (SNB-75 CNS): > 100 µM
- TGI (SNB-78 CNS): > 100 µM
- TGI (SW-620 colon): > 100 µM
- TGI (TK-10 renal): > 100 µM
- TGI (U251 CNS): > 100 µM
- TGI (UACC-257 melanoma): > 100 µM
- TGI (UACC-62 melanoma): > 100 µM
- TGI (UO-31 renal): > 100 µM
- TGI (XF 498 CNS): > 100 µM
